# Laboratory results reported in patent US20200002327A1, “THERAPEUTIC AGENT FOR ANXIETY DISORDERS” (KYOWA HAKKO KIRIN CO., LTD., priority 2009, published 2020).
# Columns and labels:
# rats [1] = experiment: Yohimbine-induced anxiety-like behavior in rat social interaction test; type: in vivo
# Procedure: The male SD rats (weighing 201.8 to 285.6 g; Charles River Japan Inc.)were used in this study. On the day of behavioral evaluation, the animals were acclimatized to the test environment from 4 hours before the start of the experiment. Sixty minutes after oral administration of a vehicle (0.5 w/v % MC solution) or a test compound (prepared in suspension in 0.5 w/v % MC solution to obtain a dosing concentration of 0.5 mL per 100 g of rat body weight), two rats were allowed to meet each other in an acrylic box (50×50×50 cm). The total time of social interaction behaviors (sniffing, following, grooming and the like) during monitoring for 10 minutes immediately after meeting (between-rats interaction time) were measured with a stopwatch. Using the method of Test Example 4, the effect of a compound on the anxiety induced with administration of an anxiogenic substance was examined. Yohimbine (adrenalin α2 receptor antagonist) is known as one of the anxiogenic substance. It is thought that locus coeruleus hyperactivity that accompanies α2 receptor antagonizing action is contributory to the anxiety-inducing action of Yohimbine. Anxiety symptoms that develop with administration of Yohimbine to healthy persons were reported to be similar to panic disorders, in the pathophysiology of which abnormal locus coeruleus activity is considered to be largely involved. […]
# rats [2] = experiment: mCPP-induced anxiety-like behavior in rat social interaction test; type: in vivo
# Procedure: (§1) The male SD rats (weighing 201.8 to 285.6 g; Charles River Japan Inc.)were used in this study. On the day of behavioral evaluation, the animals were acclimatized to the test environment from 4 hours before the start of the experiment. Sixty minutes after oral administration of a vehicle (0.5 w/v % MC solution) or a test compound (prepared in suspension in 0.5 w/v % MC solution to obtain a dosing concentration of 0.5 mL per 100 g of rat body weight), two rats were allowed to meet each other in an acrylic box (50×50×50 cm). The total time of social interaction behaviors (sniffing, following, grooming and the like) during monitoring for 10 minutes immediately after meeting (between-rats interaction time) were measured with a stopwatch.
# Meanwhile, meta-chlorophenylpiperadine hydrochloride (mCPP) is an anxiogenic substance having a 5-HT2 receptor stimulation action. It was reported that mCPP induced anxiety symptoms in healthy subjects and aggravated the symptoms of generalized anxiety disorder in humans. The mCPP-induced anxiety response is an experimental model that well reflects anxiety (for example, generalized anxiety disorder) caused by abnormal signaling especially via 5-HT2 receptors.
# Next, the effect on mCPP-induced anxiety was examined. […]
# male SD rats [3] = experiment: Conditioned fear stress (CFS) test in rats; type: in vivo, rat; conditions: 0.3 mg/kg, 60 min before retention trial
# From the text: In this test (Folia Pharmacologica Japonica, 113, p. 113 (1999)), the influences of psychological stress resulting from past aversion experience on living organisms can be measured as behavioral suppression (freezing reaction) or autonomic nervous system hyperactivity (increases in respiratory rate and blood pressure).
# The male SD rats (weighing 140.2 to 320.0 g; Charles River Japan Inc.) and a contextual learning test system were used in this study. The experimental apparatus is consisted of a soundproof box, and a test cage (20×20×25 cm), a shock generator, a controller, an external monitor and PC analysis system, which were placed in the soundproof box. The test cage has stainless bars on the floor at 1-cm intervals. A scrambled electric current was generated from the shock generator using 35 a command of the special program . The inside of the soundproof box was equipped with a speaker. A buzzer sound of 65 dB was generated via the controller using a command of the special program. The animal behavior within the test cage was recorded with a CCD camera, which was positioned on the ceiling of the soundproof box. […] The percentage of freezing behavior was determined by (Freezing time/Test time)×100. […] According to the same schedule as that on the previous day, only a buzzer sound was generated six times and the duration of freezing behavior was measured. […]
# male SD rats [4] = experiment: Elevated plus maze test in rat; type: in vivo; conditions: 0.1 mg/kg oral
# From the text: In this test, a conflict arises between rodent's exploratory drive and an innate aversion to bright open new spaces (open arms), accordingly, it has been reported that drugs having anti-anxiety activity increase the time spent in the open arms and the number of open arm entries, while anxiogenic substance decreases these parameters (Japanese Journal of Clinical Psychopharmacology, 9, p. 2389 (2006)). This test is thought to be an animal model of generalized anxiety disorders (Folia Pharmacologica Japonica, 115, p. 5 (2005), Japanese Journal of Clinical Psychopharmacology, 9, p. 2389 (2006)).
# The male SD rats (weighing 133.8 to 260.2 g; Charles River Japan Inc.) were used in this study. An apparatus was used wherein two open arms (50×10 cm) extending on the same line from a 10 cm-square central area and two enclosed arms (50×10 cm) surrounded by a wall of 40 cm height are perpendicularly crossing. Sixty minutes after oral administration of a vehicle (0.5 w/v % MC solution) or a test 20 compound (a suspension in 0.5 w/v % MC solution prepared to obtain a dosing concentration of 0.5 mL per 100 g of rat body weight), each rat was placed in the center of the elevated plus maze with its head facing toward the enclosed arm and immediately observed for its behavior for 5 minutes. The rat behavior on the maze was recorded with a digital video camera positioned on the ceiling of the laboratory. The times spent and number of entries in the open arms, enclosed arms and central platform, and distance travelled were determined using analysis software. The time spent in the open arms, percentage of open arm entries (ratio of the number of entries in the open arms to the total number of entries in the open and enclosed arms) and total distance travelled on the maze during the monitoring period were determined to evaluate the influences of the test compound.
# male Wistar rats = experiment: Vogel conflict test in rats; type: in vivo, rat; conditions: 0.03 mg/kg oral, 60 minutes before; 5 min session; vehicle 6.1±0.8 times; P=0.003846, Steel-test
# Procedure: This test is to measure drinking counts (number of shocks during drinking) when an electric shock is applied to a water-deprived rat at each time that the rat drinks water. Under this condition, a rat is thought to be placed under a state of conflict between the motivation to drink (positive reinforcing factor) and the aversion to receiving an electric shock (negative reinforcing factor, punishment). When anxiolytics are administered to a rat, anxiety about punishing stimuli is suppressed and behavior in an attempt to take a positive reinforcer is observed. This test is thought to be an animal model of generalized anxiety disorders (Folia Pharmacologica Japonica, 115, p. 5 (2005), Japanese Journal of Clinical Psychopharmacology, 9, p. 2389 (2006)).
# The male Wistar rats (weighing 148.4 to 211.7 g; Japan SLC, Inc.) and an operant experimental apparatus were used in 20 this study. The chamber consisted of a soundproof box, and a test cage (25×30×25 cm), a shock generator, a controller, a licking sensor and PC analysis system placed in the soundproof box. […] Current conduction by licking (drinking) was detected with the licking senor and measured with the PC analysis system via the controller. […] Twenty nozzle licks were counted as one drinking response and drinking frequency (drinking count) was determined (pre-value). […]
# male SD rats [5] = experiment: Rat social interaction test; type: in vivo; conditions: 0.3 mg/kg oral
# From the text: It is known that these social interactions increase with administration of existing anxiolytics. This test is thought as an animal model of social phobia or generalized anxiety disorders because it is consider that contradictory social environments between two rats cause stress (Eur. J. Pharmacol., 408, p. 41 (2000)).
# as §1
# male ICR mice = experiment: Marble burying behavior test in mice; type: in vivo; conditions: 3 mg/kg oral, 1 hour before test; marbles counted after 30 minutes; significant
# From the text: This test is known as one of the test systems for anxiolytics (Folia Pharmacologica Japonica, 126, p. 94 (2005)). Marble-burying behavior is a behavior of the mouse to bury marbles in spread planer bedding on which the marbles were placed, and is suppressed, without being accompanied by motor inhibition, by selective serotonin reuptake inhibitors (SSRIs). Since the behavior of the mouse to attempt to cover and bury harmless marbles in planer bedding is apparently similar to compulsions in patients with obsessive-compulsive disorders that are repeated while they recognize them as being unreasonable, and also since SSRIs are effective as therapeutic drugs for obsessive-compulsive disorders, and for other reasons, the marble burying behavior is getting positioned as an animal model of obsessive-compulsive disorder
# The male ICR mice (weighing 27.6 to 42.9 g; Japan SLC, Inc.) were used in this study. […] At 30 minutes later, the number of marbles more than half-buried in the planer was counted. […]
# The effects of the drug are expressed as the actually measured number of buried marbles and the inhibition rate calculated by the following equation.
compound,measurement,setting,value
"COC(=O)[C@@H]1[C@H]2C[C@H]3c4[nH]c5ccccc5c4CCN3C[C@@H]2CC[C@@H]1O [Yohimbine, reference compound]",between-rats interaction time (Yohimbine alone),"rats [1]; Yohimbine 5 mg/kg oral, 30 minutes before measurement, vehicle 90.6±7.1 seconds, P=0.0010, Aspin-Welch test",57.6 ± 3.4 s
"Cl.Clc1cccc(N2CCNCC2)c1 [mCPP, meta-chlorophenylpiperadine hydrochloride, reference compound]",between-rats interaction time (mCPP alone),"rats [2]; mCPP 0.5 mg/kg oral, 30 minutes before measurement, vehicle 83.4±5.1 seconds, P<0.001, Student's t-test",32.5 ± 3.6 s
Cc1ccc(C(=O)Nc2nc(-c3ccco3)c(C(=O)C3CCOCC3)s2)cn1 [compound (IC)],percentage of freezing behavior in the post-tone period,"male SD rats [3]; vehicle 59.8±9.6, P=0.01559, Dunnett test",23.4 ± 8.1%
same,percentage of freezing behavior in the with-tone period,"male SD rats [3]; vehicle 90.2±2.6, P=0.02867, Steel test",57.1 ± 9.9%
same,time spent in the open arms,"male SD rats [4]; 60 min before, 5 minutes, vehicle 21.6 ±7.4 seconds, P=0.01687, Steel test",61.6 ± 10.9 s
same,percentage of open arm entries,"male SD rats [4]; vehicle 15.5±3.0%, P=0.04759, Steel test",33.4±6.3%
same,total distance travelled on the maze,"male SD rats [4]; vehicle 2521.97±95.34 cm, not affected",2414.83±102.13 cm
same,"number of electric shocks received (drinking count, test-punished session)",male Wistar rats,12.7±1.7 times
same,between-rats interaction time,"male SD rats [5]; 60 min before, 10 min monitoring, vehicle 85.2 ±7.6 seconds, P=0.01545, Dunnett test",119.3 ± 9.0 s
same,spontaneous activity,"male SD rats [5]; vehicle 8635.3 ±506.4 counts, P<0.001, Dunnett test",12922.7 ±646.8 counts
same,between-rats interaction time (improvement of reduction by mCPP),"rats [2]; 0.3 mg/kg, 30 minutes before mCPP (0.5 mg/kg), mCPP alone 32.5±3.6 seconds, P<0.001, Dunnett test",62.4 ± 6.9 s
same,between-rats interaction time (improvement of reduction by Yohimbine),"rats [1]; 0.03 mg/kg, 30 minutes before Yohimbine (5 mg/kg), Yohimbine alone 57.6±3.4 seconds, P=0.00019, Steel test",90.3 ± 5.0 s
same,% inhibition of mouse marble burying behavior,male ICR mice,73.7%
